Test results as given in patent publication US20240423962A1, “FASCIN BINDING COMPOUNDS FOR SPINOGENESIS” (Spinogenix, Inc., priority 2018, published 2024).

Experiments:
fascin = fascin (Homo sapiens, UniProt Q16658); details: cited from earlier work
[1] = system: primary mouse cortical neurons; test: Synaptic density of primary mouse cortical neurons (synaptophysin P38 puncta), FIG. 6; format: cell-based; details: luM, 24 hours of treatment
Protocol: The effect of the indicated compounds on the synaptic density of primary mouse cortical neurons was determined after 24 hours of treatment. FIG. 6. Primary mouse cortical neurons were treated on day 15 in vitro with fascin-inhibiting small molecules at luM, or with vehicle (DMSO). After 24 hours of treatment, neurons were fixed, immunolabeled for a protein component of synapses, the presynaptic vesicle protein, synaptophysin (P38), and then stained with the nuclear dye DAPI. Immunolabeled neurons were imaged on a Leica confocal microscope. The numbers of P38-immunopositive puncta were analyzed using FUI with the Squash plugin.

O=C(Nc1nn(Cc2ccc(C(F)(F)F)cc2)c2ccccc12)c1ccco1 [compound 1, N-(1-(4-(trifluoromethyl)benzyl)-1H-indazol-3-yl)furan-2-carboxamide]
Fascin binding site (fascin; FIG. 5): bind to fascin at binding site 2
Effect of binding on actin-binding sites of fascin (fascin): opens actin-binding site 2 and closes actin-binding site 1
Spine density compared to comparative compounds [1]: increase spine density more than comparative compounds 1 and 7
Spine density compared to control ([1]; vs vehicle (DMSO)): increase spine density compared to control
